Laboratory results taken from patent US10428080B2, “TBK/IKK inhibitor compounds and uses thereof” (Merck Patent GmbH, priority 2015, dated 2019).
Where a name gives a salt, the structure may show the parent alone.

Tests used:
[1] = biological target: T1, TBK1 (Homo sapiens, UniProt Q9UHD2); test: TBK Biochemical Assay; conditions: read-out: TBK1 IC50
T1 sequence (Q9UHD2 1-729): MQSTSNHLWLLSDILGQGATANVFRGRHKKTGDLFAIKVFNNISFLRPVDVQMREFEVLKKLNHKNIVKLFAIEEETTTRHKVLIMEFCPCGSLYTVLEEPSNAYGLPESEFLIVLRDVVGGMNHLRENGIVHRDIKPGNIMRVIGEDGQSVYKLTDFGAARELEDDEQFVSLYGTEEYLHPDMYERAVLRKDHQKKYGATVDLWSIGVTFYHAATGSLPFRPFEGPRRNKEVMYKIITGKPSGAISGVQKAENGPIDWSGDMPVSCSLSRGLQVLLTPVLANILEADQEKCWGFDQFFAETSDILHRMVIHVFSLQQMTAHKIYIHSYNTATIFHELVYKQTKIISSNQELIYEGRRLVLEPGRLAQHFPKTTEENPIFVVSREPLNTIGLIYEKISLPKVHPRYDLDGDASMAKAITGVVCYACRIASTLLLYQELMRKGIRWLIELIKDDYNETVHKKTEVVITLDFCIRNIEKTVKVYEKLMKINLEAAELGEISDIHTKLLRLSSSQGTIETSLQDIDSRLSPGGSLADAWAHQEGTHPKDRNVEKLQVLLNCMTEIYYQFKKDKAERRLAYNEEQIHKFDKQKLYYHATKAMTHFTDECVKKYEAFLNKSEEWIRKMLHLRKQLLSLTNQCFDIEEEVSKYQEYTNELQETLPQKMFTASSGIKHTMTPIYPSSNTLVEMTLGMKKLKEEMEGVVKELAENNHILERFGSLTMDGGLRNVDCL
Protocol: Example 482: TBK Biochemical Assay
(§1) Test compounds were transferred into Labcyte polypropylene 384 well plates (P055-25) and diluted to 3 mM using DMSO. 3 mM test compounds were dispensed using Labcyte ECHO dose response module into Greiner 784075 plates (columns 3-12 and 13-22, 10 point 1:4) so that high concentration was 30 uM final. 100 uM of a reference compound (1 uM final high concentration). Backfilling was performed if necessary so that all wells contain 1% DMSO final: […]
(§2) add 75 nl DMSO/well into columns 1, 2 and 24 using Labcyte Echo. add 75 nl 1.0 mM staurosporine/well into column 23 using Labcyte Echo ([…]) add 4.5 ul enzyme/well using multidrop dispenser add 3 ul substrate/well using multidrop dispenser incubate at 25° C. in Heidolph incubator for 90 min. add 7.5 ul 2× stop buffer using multidrop dispenser read on labchip ez reader II using TBK1.job
(§3) Raw data files were opened in the Caliper LabChip Reviewer program (Version 3.0.265.0 SP2) and peak assignments were adjusted to reflect “substrate first” with the software's post-run analysis options. A spline-fit baseline was applied using the software's analysis algorithm.

[2] = biological target: T2, IKKε (Homo sapiens, UniProt Q14164); test: IKKe Biochemical Assay; conditions: read-out: IKKε IC50
T2 sequence (Q14164 1-716): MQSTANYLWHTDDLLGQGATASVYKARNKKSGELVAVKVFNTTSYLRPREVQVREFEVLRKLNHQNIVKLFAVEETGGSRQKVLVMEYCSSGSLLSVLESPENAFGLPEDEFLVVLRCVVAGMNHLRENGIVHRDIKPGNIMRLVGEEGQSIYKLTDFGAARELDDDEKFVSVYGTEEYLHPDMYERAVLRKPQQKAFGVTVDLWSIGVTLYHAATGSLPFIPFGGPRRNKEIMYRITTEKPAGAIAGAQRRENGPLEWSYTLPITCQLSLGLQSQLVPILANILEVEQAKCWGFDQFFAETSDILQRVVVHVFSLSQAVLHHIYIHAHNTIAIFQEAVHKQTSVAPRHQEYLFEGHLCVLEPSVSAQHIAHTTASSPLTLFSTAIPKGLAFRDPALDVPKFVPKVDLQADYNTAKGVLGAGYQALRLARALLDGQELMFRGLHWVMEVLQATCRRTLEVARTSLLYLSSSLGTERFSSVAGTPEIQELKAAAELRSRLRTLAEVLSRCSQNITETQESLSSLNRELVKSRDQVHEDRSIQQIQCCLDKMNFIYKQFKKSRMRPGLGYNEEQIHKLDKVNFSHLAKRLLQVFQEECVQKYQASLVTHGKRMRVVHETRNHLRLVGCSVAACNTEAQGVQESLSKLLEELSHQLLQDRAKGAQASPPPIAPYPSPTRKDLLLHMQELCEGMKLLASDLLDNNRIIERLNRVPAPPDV
Protocol: as §1, with “(Greiner” for “Greiner”
as §2, with “C.” for “C. in Heidolph incubator”, “buffer” for “buffer using multidrop dispenser”, “IKKε. job” for “TBK1.job”
as §3

`CN(C)C(=O)c1ccc(-c2cc3nccc(-c4ccc(N5CC[C@H](F)C5)c(C#N)c4)c3o2)nc1` (single isomer, unassigned) [Compound 273, 6-(7-(3-cyano-4-(3-fluoropyrrolidin-1-yl)phenyl)furo[3,2-b]pyridin-2-yl)-N,N-dimethylnicotinamide hydrochloride] was tested, and the IC50 [1] was < 100 nM and the IC50 [2] was < 100 nM.
`N#Cc1cc(-c2ccnc3cc(-c4ccc(C(=O)N[C@@H]5CCNC[C@@H]5F)cc4F)oc23)ccc1NC1CCOCC1` (stereo in doubt) [Compound 252, 4-(7-(3-cyano-4-(tetrahydro-2H-pyran-4-ylamino)phenyl)furo[3,2-b]pyridin-2-yl)-3-fluoro-N-(3-fluoropiperidin-4-yl)benzamide hydrochloride] was tested, and the IC50 [1] was 100 to 1000 nM and the IC50 [2] was 100 to 1000 nM.
With `COc1cc(C(=O)N2C3CCC2COC3)ccc1-c1cc2nccc(-c3ccc(OC4CCOCC4)c(C#N)c3)c2o1` [Compound 2, 5-{2-[2-Methoxy-4-(3-oxa-8-aza-bicyclo[3.2.1]octane-8-carbonyl)-phenyl]-furo[3,2-b]pyridin-7-yl}-2-(tetrahydro-pyran-4-yloxy)-benzonitrile] the IC50 [1] was < 100 nM and the IC50 [2] was < 100 nM.
In the case of `COc1cc(C(=O)N2CC3CCC2CO3)ccc1-c1cc2nccc(-c3ccc(OC4CCOCC4)c(C#N)c3)c2o1` (stereo not shown) [Compound 4, 5-{2-[2-Methoxy-4-(2-oxa-5-aza-bicyclo[2.2.2]octane-5-carbonyl)-phenyl]-furo[3,2-b]pyridin-7-yl}-2-(tetrahydro-pyran-4-yloxy)-benzonitrile], the IC50 [1] is reported as < 100 nM and the IC50 [2] is reported as < 100 nM.
`COc1cc(C(=O)N2CC3CC(C2)O3)ccc1-c1cc2nccc(-c3ccc(OC4CCOCC4)c(C#N)c3)c2o1` [Compound 6, 5-{2-[2-Methoxy-4-(6-oxa-3-aza-bicyclo[3.1.1]heptane-3-carbonyl)-phenyl]-furo[3,2-b]pyridin-7-yl}-2-(tetrahydro-pyran-4-yloxy)-benzonitrile] was tested, and the IC50 [1] was < 100 nM and the IC50 [2] was < 100 nM.
`COc1cc(C(=O)N2CCC(OC)CC2)ccc1-c1cc2nccc(-c3ccc(OC4CCOCC4)c(C#N)c3)c2o1` [Compound 12, 5-(2-[2-Methoxy-4-(4-methoxy-piperidine-1-carbonyl)-phenyl]-furo[3,2-b]pyridin-7-yl}-2-(tetrahydro-pyran-4-yloxy)-benzonitrile] was tested, and the IC50 [1] was < 100 nM and the IC50 [2] was < 100 nM.
In the case of `COc1cc(C(=O)N2CCC(C)(O)C2)ccc1-c1cc2nccc(-c3ccc(OC4CCOCC4)c(C#N)c3)c2o1` (stereo not shown) [Compound 19, 5-{2-[4-(3-Hydroxy-3-methyl-pyrrolidine-1-carbonyl)-2-methoxy-phenyl]-furo[3,2-b]pyridin-7-yl}-2-(tetrahydro-pyran-4-yloxy)-benzonitrile], the IC50 [1] is reported as < 100 nM and the IC50 [2] is reported as < 100 nM.
In the case of `COc1cc(C(=O)N2CCCC(O)C2)ccc1-c1cc2nccc(-c3ccc(OC4CCOCC4)c(C#N)c3)c2o1` (stereo not shown) [Compound 22, 5-{2-[4-(3-Hydroxy-piperidine-1-carbonyl)-2-methoxy-phenyl]-furo[3,2-b]pyridin-7-yl}-2-(tetrahydro-pyran-4-yloxy)-benzonitrile], the IC50 [1] is reported as < 100 nM and the IC50 [2] is reported as < 100 nM.
In the case of `COc1cc(C(=O)N2CC(S(C)(=O)=O)C2)ccc1-c1cc2nccc(-c3ccc(OC4CCOCC4)c(C#N)c3)c2o1` [Compound 26, 5-{2-[4-(3-Methanesulfonyl-azetidine-1-carbonyl)-2-methoxy-phenyl]-furo[3,2-b]pyridin-7-yl}-2-(tetrahydro-pyran-4-yloxy)-benzonitrile], the IC50 [1] is reported as < 100 nM and the IC50 [2] is reported as < 100 nM.
In the case of `COc1cc(C(=O)N(C)C2CCNCC2)ccc1-c1cc2nccc(-c3ccc(OC4CCOCC4)c(C#N)c3)c2o1` [Compound 41, 4-(7-[3-Cyano-4-(tetrahydro-pyran-4-yloxy)-phenyl]-furo[3,2-b]pyridin-2-yl)-3-methoxy-N-methyl-N-piperidin-4-yl-benzamide hydrochloride], the IC50 [1] is reported as < 100 nM and the IC50 [2] is reported as < 100 nM.
For `COc1cc(C(=O)N2CCC2)ccc1-c1cc2nccc(-c3ccc(OC4CCOCC4)c(C#N)c3)c2o1` [Compound 44, 5-{2-[4-(Azetidine-1-carbonyl)-2-methoxy-phenyl]-furo[3,2-b]pyridin-7-yl}-2-(tetrahydro-pyran-4-yloxy)-benzonitrile], the IC50 [1] was < 100 nM and the IC50 [2] was < 100 nM.
In the case of `COc1cc(C(=O)N2CC(C)(O)C2)ccc1-c1cc2nccc(-c3ccc(OC4CCOCC4)c(C#N)c3)c2o1` [Compound 48, 5-{2-[4-(3-Hydroxy-3-methyl-azetidine-1-carbonyl)-2-methoxy-phenyl]-furo[3,2-b]pyridin-7-yl}-2-(tetrahydro-pyran-4-yloxy)-benzonitrile], the IC50 [1] is reported as < 100 nM and the IC50 [2] is reported as < 100 nM.
For `COc1cc(C(=O)N(C)C2CCNC2)ccc1-c1cc2nccc(-c3ccc(OC4CCOCC4)c(C#N)c3)c2o1` (stereo not shown) [Compound 56, 4-{7-[3-Cyano-4-(tetrahydro-pyran-4-yloxy)-phenyl]-furo[3,2-b]pyridin-2-yl}-3-methoxy-N-methyl-N-pyrrolidin-3-yl-benzamide], the IC50 [1] was < 100 nM and the IC50 [2] was < 100 nM.
`COc1cc(C(=O)N(C)C2CC2)ccc1-c1cc2nccc(-c3ccc(OC4CCOCC4)c(C#N)c3)c2o1` [Compound 60, 4-{7-[3-Cyano-4-(tetrahydro-pyran-4-yloxy)-phenyl]-furo[3,2-b]pyridin-2-yl}-N-cyclopropyl-3-methoxy-N-methyl-benzamide] was tested, and the IC50 [1] was < 100 nM and the IC50 [2] was < 100 nM.
With `COc1cc(C(=O)N(C)C2CCN(C)C2)ccc1-c1cc2nccc(-c3ccc(OC4CCOCC4)c(C#N)c3)c2o1` (stereo not shown) [Compound 61, 4-{7-[3-Cyano-4-(tetrahydro-pyran-4-yloxy)-phenyl]-furo[3,2-b]pyridin-2-yl}-3-methoxy-N-methyl-N-(1-methyl-pyrrolidin-3-yl)-benzamide] the IC50 [1] was < 100 nM and the IC50 [2] was < 100 nM.
With `COc1cc(C(=O)N2C3COCC2CC(O)C3)ccc1-c1cc2nccc(-c3ccc(OC4CCOCC4)c(C#N)c3)c2o1` (stereo not shown) [Compound 66, 5-{2-[4-(7-Hydroxy-3-oxa-9-aza-bicyclo[3.3.1]nonane-9-carbonyl)-2-methoxy-phenyl]-furo[3,2-b]pyridin-7-yl}-2-(tetrahydro-pyran-4-yloxy)-benzonitrile] the IC50 [1] was < 100 nM and the IC50 [2] was < 100 nM.
For `COc1cc(C(=O)N2C[C@H]3C[C@@H](O)C[C@H]3C2)ccc1-c1cc2nccc(-c3ccc(NC4CCOCC4)c(C#N)c3)c2o1` [Compound 81, 5-{2-[4-((3aR,5R,6aS)-5-Hydroxy-hexahydro-cyclopenta[c]pyrrole-2-carbonyl)-2-methoxy-phenyl]-furo[3,2-b]pyridin-7-yl}-2-(tetrahydro-pyran-4-ylamino)-benzonitrile], the IC50 [1] was < 100 nM and the IC50 [2] was < 100 nM.
